Test results: ChEMBL document CHEMBL3885881, “DrugMatrix”

Species on record: Rattus norvegicus
Assay: DrugMatrix - Regimen: Daily Repeat
Assay type: toxicity, organism-based, Sprague-Dawley
Design: regimen Daily Repeat, gender Male, age 6-8 weeks
Conditions: in vivo, po, route oral GAVAGE, vehicle 100 % WATER; for URIC ACID / ALANINE AMINOTRANSFERASE / ALKALINE PHOSPHATASE / ASPARTATE AMINOTRANSFERASE / BLOOD UREA NITROGEN / CARBON DIOXIDE / CHLORIDE / CHOLESTEROL / CREATINE PHOSPHOKINASE / CREATININE / GLUCOSE / LACTATE DEHYDROGENASE / LIPASE / PHOSPHORUS / POTASSIUM / SODIUM / TOTAL BILIRUBIN / TOTAL PROTEIN: tissue Plasma; for ABSOLUTE BASOPHIL / ABSOLUTE EOSINOPHIL / ABSOLUTE LYMPHOCYTE / ABSOLUTE MONOCYTE / ABSOLUTE SEGMENTED NEUTROPHIL / BASOPHIL / EOSINOPHIL / ERYTHROCYTE COUNT / HEMATOCRIT / HEMOGLOBIN / LEUKOCYTE COUNT / LYMPHOCYTE / MEAN CORPUSCULAR HEMOGLOBIN / MEAN CORPUSCULAR HEMOGLOBIN CONCENTRATION / MEAN CORPUSCULAR VOLUME / MONOCYTE / NEUTROPHIL / NUCLEATED RED BLOOD CELLS: tissue Blood
[1] = 18 mg/kg, 120 h, dose level Low, time 5 day
[2] = 73 mg/kg, 72 h, dose level High, time 3 day
[3] = 73 mg/kg, 120 h, dose level High, time 5 day

With `CN(C)CCCN1c2ccccc2Sc2ccc(Cl)cc21` [CHLORPROMAZINE] as the compound, how does the “URIC ACID” value (18 mg/kg, 72 h, dose level Low, time 3 day) read?
Its value is 0.4 mg/dL.

And the “ABSOLUTE BASOPHIL” value [1]?
Its value is 0 CELLS/uL.

And the “ABSOLUTE EOSINOPHIL” value [1]?
Its value is 76 CELLS/uL.

What about the “ABSOLUTE LYMPHOCYTE” value [1] of the same compound?
The value was 7709.67 CELLS/uL.

What about the “ABSOLUTE MONOCYTE” value [1] of the same compound?
Its value is 216 CELLS/uL.

What about the “ABSOLUTE SEGMENTED NEUTROPHIL” value [1] of the same compound?
The value was 898.33 CELLS/uL.

What about the BASOPHIL [1] of the same compound?
The BASOPHIL was 0%.

What about the EOSINOPHIL [1] of the same compound?
The EOSINOPHIL was 0.67%.

And the “ERYTHROCYTE COUNT” value [1]?
The value was 5.62 x10E6/uL.

And the HEMATOCRIT [1]?
Its HEMATOCRIT is 36.23%.

What about the HEMOGLOBIN [1] of the same compound?
Its HEMOGLOBIN is 13.87 G/DL.

And the “LEUKOCYTE COUNT” value [1]?
The value was 8.9 x10E3/uL.

And the LYMPHOCYTE [1]?
The LYMPHOCYTE was 87%.

What about the “MEAN CORPUSCULAR HEMOGLOBIN” value [1] of the same compound?
Its value is 24.7 pg.

And the “MEAN CORPUSCULAR HEMOGLOBIN CONCENTRATION” value [1]?
The value was 38.27 G/DL.

What about the “MEAN CORPUSCULAR VOLUME” value [1] of the same compound?
Its value is 64.5 fL.

And the MONOCYTE [1]?
Its MONOCYTE is 2.33%.

And the NEUTROPHIL [1]?
Its NEUTROPHIL is 10%.

What about the “NUCLEATED RED BLOOD CELLS” value [1] of the same compound?
The value was 0 /100WBC.

What about the “ALANINE AMINOTRANSFERASE” value [1] of the same compound?
The value was 54.67 u/L.

And the “ALKALINE PHOSPHATASE” value [1]?
Its value is 255.67 u/L.

What about the “ASPARTATE AMINOTRANSFERASE” value [1] of the same compound?
Its value is 80.33 u/L.

And the “BLOOD UREA NITROGEN” value [1]?
The value was 14.33 mg/dL.

And the “CARBON DIOXIDE” value [1]?
Its value is 29.33 mmol/L.

What about the CHLORIDE [1] of the same compound?
Its CHLORIDE is 102.33 MEQ/L.

And the CHOLESTEROL [1]?
The CHOLESTEROL was 84.67 mg/dL.

What about the “CREATINE PHOSPHOKINASE” value [1] of the same compound?
Its value is 218.67 u/L.

What about the CREATININE [1] of the same compound?
Its CREATININE is 0.12 mg/dL.

What about the GLUCOSE [1] of the same compound?
The GLUCOSE was 141.33 mg/dL.

And the “LACTATE DEHYDROGENASE” value [1]?
The value was 69.67 u/L.

And the LIPASE [1]?
Its LIPASE is 9 u/L.

What about the PHOSPHORUS [1] of the same compound?
The PHOSPHORUS was 11.6 mg/dL.

And the POTASSIUM [1]?
Its POTASSIUM is 5.95 MEQ/L.

And the SODIUM [1]?
Its SODIUM is 145.57 MEQ/L.

And the “TOTAL BILIRUBIN” value [1]?
Its value is 0.13 mg/dL.

And the “URIC ACID” value [1]?
Its value is 0.6 mg/dL.

What about the “ABSOLUTE BASOPHIL” value [2] of the same compound?
Its value is 0 CELLS/uL.

What about the “ABSOLUTE EOSINOPHIL” value [2] of the same compound?
The value was 0 CELLS/uL.

What about the “ABSOLUTE LYMPHOCYTE” value [2] of the same compound?
The value was 7383 CELLS/uL.

And the “ABSOLUTE MONOCYTE” value [2]?
The value was 208 CELLS/uL.

What about the “ABSOLUTE SEGMENTED NEUTROPHIL” value [2] of the same compound?
The value was 342.33 CELLS/uL.

What about the BASOPHIL [2] of the same compound?
The BASOPHIL was 0%.

What about the EOSINOPHIL [2] of the same compound?
Its EOSINOPHIL is 0%.

And the “ERYTHROCYTE COUNT” value [2]?
The value was 5.6 x10E6/uL.

And the HEMATOCRIT [2]?
Its HEMATOCRIT is 35.37%.

What about the HEMOGLOBIN [2] of the same compound?
The HEMOGLOBIN was 13.77 G/DL.

And the “LEUKOCYTE COUNT” value [2]?
Its value is 7.93 x10E3/uL.

And the LYMPHOCYTE [2]?
Its LYMPHOCYTE is 92.33%.

What about the “MEAN CORPUSCULAR HEMOGLOBIN” value [2] of the same compound?
Its value is 24.63 pg.

And the “MEAN CORPUSCULAR HEMOGLOBIN CONCENTRATION” value [2]?
The value was 38.93 G/DL.

And the “MEAN CORPUSCULAR VOLUME” value [2]?
The value was 63.17 fL.

And the MONOCYTE [2]?
The MONOCYTE was 3%.

And the NEUTROPHIL [2]?
Its NEUTROPHIL is 4.67%.

And the “NUCLEATED RED BLOOD CELLS” value [2]?
Its value is 0 /100WBC.

And the “ALANINE AMINOTRANSFERASE” value [2]?
Its value is 56 u/L.

And the “ALKALINE PHOSPHATASE” value [2]?
The value was 291.33 u/L.

And the “ASPARTATE AMINOTRANSFERASE” value [2]?
The value was 84 u/L.

What about the “BLOOD UREA NITROGEN” value [2] of the same compound?
The value was 14.33 mg/dL.

What about the “CARBON DIOXIDE” value [2] of the same compound?
Its value is 37.67 mmol/L.

What about the CHLORIDE [2] of the same compound?
Its CHLORIDE is 101 MEQ/L.

And the CHOLESTEROL [2]?
Its CHOLESTEROL is 99 mg/dL.

What about the “CREATINE PHOSPHOKINASE” value [2] of the same compound?
Its value is 176.33 u/L.

What about the CREATININE [2] of the same compound?
The CREATININE was 0.27 mg/dL.

And the GLUCOSE [2]?
The GLUCOSE was 154.67 mg/dL.

And the “LACTATE DEHYDROGENASE” value [2]?
Its value is 52.67 u/L.

What about the LIPASE [2] of the same compound?
Its LIPASE is 12 u/L.

And the PHOSPHORUS [2]?
Its PHOSPHORUS is 8.2 mg/dL.

What about the POTASSIUM [2] of the same compound?
Its POTASSIUM is 5.02 MEQ/L.

And the SODIUM [2]?
The SODIUM was 145.37 MEQ/L.

And the “TOTAL BILIRUBIN” value [2]?
Its value is 0.13 mg/dL.

What about the “TOTAL PROTEIN” value [2] of the same compound?
The value was 5.7 G/DL.

What about the “URIC ACID” value [2] of the same compound?
Its value is 0.4 mg/dL.

And the “ABSOLUTE BASOPHIL” value [3]?
The value was 0 CELLS/uL.

What about the “ABSOLUTE EOSINOPHIL” value [3] of the same compound?
The value was 148.67 CELLS/uL.

What about the “ABSOLUTE LYMPHOCYTE” value [3] of the same compound?
Its value is 10432 CELLS/uL.

What about the “ABSOLUTE MONOCYTE” value [3] of the same compound?
Its value is 268.67 CELLS/uL.

What about the “ABSOLUTE SEGMENTED NEUTROPHIL” value [3] of the same compound?
Its value is 584 CELLS/uL.

And the BASOPHIL [3]?
Its BASOPHIL is 0%.

What about the EOSINOPHIL [3] of the same compound?
The EOSINOPHIL was 1.33%.

And the “ERYTHROCYTE COUNT” value [3]?
Its value is 6.19 x10E6/uL.

And the HEMATOCRIT [3]?
The HEMATOCRIT was 38.2%.

And the HEMOGLOBIN [3]?
Its HEMOGLOBIN is 14.83 G/DL.

What about the “LEUKOCYTE COUNT” value [3] of the same compound?
The value was 11.43 x10E3/uL.

What about the LYMPHOCYTE [3] of the same compound?
The LYMPHOCYTE was 91%.

And the “MEAN CORPUSCULAR HEMOGLOBIN” value [3]?
The value was 23.93 pg.

What about the “MEAN CORPUSCULAR HEMOGLOBIN CONCENTRATION” value [3] of the same compound?
The value was 38.87 G/DL.

And the “MEAN CORPUSCULAR VOLUME” value [3]?
Its value is 61.63 fL.

And the MONOCYTE [3]?
The MONOCYTE was 2.33%.

And the NEUTROPHIL [3]?
Its NEUTROPHIL is 5.33%.

What about the “NUCLEATED RED BLOOD CELLS” value [3] of the same compound?
Its value is 0 /100WBC.

What about the “ALANINE AMINOTRANSFERASE” value [3] of the same compound?
The value was 61.67 u/L.

And the “ALKALINE PHOSPHATASE” value [3]?
Its value is 321.67 u/L.

And the “ASPARTATE AMINOTRANSFERASE” value [3]?
The value was 110.67 u/L.

And the “BLOOD UREA NITROGEN” value [3]?
Its value is 24.67 mg/dL.

And the “CARBON DIOXIDE” value [3]?
The value was 27.67 mmol/L.

What about the CHLORIDE [3] of the same compound?
The CHLORIDE was 103.33 MEQ/L.

What about the CHOLESTEROL [3] of the same compound?
Its CHOLESTEROL is 87.33 mg/dL.

What about the “CREATINE PHOSPHOKINASE” value [3] of the same compound?
Its value is 231.67 u/L.

What about the CREATININE [3] of the same compound?
Its CREATININE is 0.25 mg/dL.

What about the GLUCOSE [3] of the same compound?
Its GLUCOSE is 142.33 mg/dL.

What about the “LACTATE DEHYDROGENASE” value [3] of the same compound?
Its value is 88.67 u/L.

And the LIPASE [3]?
The LIPASE was 10.33 u/L.

And the PHOSPHORUS [3]?
Its PHOSPHORUS is 9.27 mg/dL.

What about the POTASSIUM [3] of the same compound?
The POTASSIUM was 5.11 MEQ/L.

What about the SODIUM [3] of the same compound?
Its SODIUM is 145.67 MEQ/L.

And the “TOTAL BILIRUBIN” value [3]?
Its value is 0.17 mg/dL.

And the “TOTAL PROTEIN” value [3]?
The value was 6.07 G/DL.

What about the “URIC ACID” value [3] of the same compound?
Its value is 0.43 mg/dL.
